Like-named read-outs stand apart in the source and are kept apart here.
Experiments:
Experiment in all cases: Test D pre-/postemergence plant response
Assay type in all cases: in vivo
[1] = test system: giant foxtail (Setaria faberii); settings: Setaria faberi; for pest or weed control at 16 g/ha: 16 g ai/ha; for pest or weed control at 31 g/ha: 31 g ai/ha; for pest or weed control at 62 g/ha: 62 g ai/ha; for pest or weed control at 125 g/ha: 125 g ai/ha
Method in brief: (§1)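 Ratings were visual, 0 = no effect to 100 = complete control, taken against untreated controls after 13 to 15 days in a greenhouse. Chemicals, formulated in non-phytotoxic surfactant-containing solvent, went onto soil (loam/sand) at planting for preemergence, or onto 1- to 4-leaf plants (2–18 cm) for postemergence.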

[2] = test system: lambsquarters (Chenopodium album); settings: Chenopodium album; for pest or weed control at 16 g/ha: 16 g ai/ha; for pest or weed control at 31 g/ha: 31 g ai/ha; for pest or weed control at 62 g/ha: 62 g ai/ha; for pest or weed control at 125 g/ha: 125 g ai/ha
Method in brief: as §1

[3] = test system: morningglory (Ipomoea coccinea); settings: Ipomoea; for pest or weed control at 16 g/ha: 16 g ai/ha; for pest or weed control at 31 g/ha: 31 g ai/ha; for pest or weed control at 62 g/ha: 62 g ai/ha; for pest or weed control at 125 g/ha: 125 g ai/ha
Method in brief: as §1

[4] = test system: pigweed (Amaranthus retroflexus); settings: Amaranthus retroflexus; for pest or weed control at 16 g/ha: 16 g ai/ha; for pest or weed control at 31 g/ha: 31 g ai/ha; for pest or weed control at 62 g/ha: 62 g ai/ha; for pest or weed control at 125 g/ha: 125 g ai/ha
Method in brief: as §1

[5] = test system: ragweed (common ragweed, Ambrosia elatior); settings: Ambrosia artemisiifolia; for pest or weed control at 16 g/ha: 16 g ai/ha; for pest or weed control at 31 g/ha: 31 g ai/ha; for pest or weed control at 62 g/ha: 62 g ai/ha; for pest or weed control at 125 g/ha: 125 g ai/ha
Method in brief: as §1

[6] = test system: waterhemp (common waterhemp, Amaranthus rudis); settings: Amaranthus tuberculatus; for pest or weed control at 16 g/ha: 16 g ai/ha; for pest or weed control at 31 g/ha: 31 g ai/ha; for pest or weed control at 62 g/ha: 62 g ai/ha; for pest or weed control at 125 g/ha: 125 g ai/ha
Method in brief: as §1

[7] = post-emergence, Postemergence, scale 0 to 100 (0 no effect, 100 complete control), read-out: Foxtail, Giant plant response rating
[8] = post-emergence, Postemergence, scale 0 to 100, 0 no effect, 100 complete control, read-out: Plant response rating, Foxtail, Giant
[9] = pre-emergence, Preemergence, scale 0 to 100 (0 no effect, 100 complete control), read-out: Plant response rating, Foxtail, Giant
[10] = post-emergence, Postemergence, scale 0 to 100 (0 no effect, 100 complete control), read-out: Lambsquarters plant response rating
[11] = post-emergence, Postemergence, scale 0 to 100, 0 no effect, 100 complete control, read-out: Plant response rating, Lambsquarters
[12] = pre-emergence, Preemergence, scale 0 to 100 (0 no effect, 100 complete control), read-out: Plant response rating, Lambsquarters
[13] = post-emergence, Postemergence, scale 0 to 100 (0 no effect, 100 complete control), read-out: Morningglory plant response rating
[14] = post-emergence, Postemergence, scale 0 to 100, 0 no effect, 100 complete control, read-out: Plant response rating, Morningglory
[15] = pre-emergence, Preemergence, scale 0 to 100 (0 no effect, 100 complete control), read-out: Plant response rating, Morningglory
[16] = post-emergence, Postemergence, scale 0 to 100 (0 no effect, 100 complete control), read-out: Pigweed plant response rating
[17] = post-emergence, Postemergence, scale 0 to 100, 0 no effect, 100 complete control, read-out: Plant response rating, Pigweed
[18] = pre-emergence, Preemergence, scale 0 to 100 (0 no effect, 100 complete control), read-out: Plant response rating, Pigweed
[19] = post-emergence, Postemergence, scale 0 to 100 (0 no effect, 100 complete control), read-out: Ragweed plant response rating
[20] = post-emergence, Postemergence, scale 0 to 100, 0 no effect, 100 complete control, read-out: Plant response rating, Ragweed
[21] = pre-emergence, Preemergence, scale 0 to 100 (0 no effect, 100 complete control), read-out: Plant response rating, Ragweed
[22] = post-emergence, Postemergence, scale 0 to 100 (0 no effect, 100 complete control), read-out: Waterhemp plant response rating
[23] = post-emergence, Postemergence, scale 0 to 100, 0 no effect, 100 complete control, read-out: Plant response rating, Waterhemp
[24] = pre-emergence, Preemergence, scale 0 to 100 (0 no effect, 100 complete control), read-out: Plant response rating, Waterhemp

Fc1cccc(Oc2ncc(Cl)cn2)c1-c1cc(C(F)F)on1 [Compound 55, 5-chloro-2-[2-[5-(difluoromethyl)-3-isoxazolyl]-3-fluorophenoxy]pyrimidine]
pest or weed control at 16 g/ha [1, 7]: 40%
pest or weed control at 31 g/ha [1, 7]: 50%
pest or weed control at 62 g/ha [1, 8]: 40%
pest or weed control at 125 g/ha [1, 8]: 75%
pest or weed control at 125 g/ha ([1]; pre-emergence, Preemergence, read-out: Plant response rating (scale 0 to 100), Foxtail, Giant): 100%
pest or weed control at 16 g/ha [1, 9]: 100%
pest or weed control at 31 g/ha [1, 9]: 100%
pest or weed control at 62 g/ha [1, 9]: 100%
pest or weed control at 16 g/ha [2, 10]: 75%
pest or weed control at 31 g/ha [2, 10]: 85%
pest or weed control at 62 g/ha [2, 11]: 98%
pest or weed control at 125 g/ha [2, 11]: 98%
pest or weed control at 125 g/ha ([2]; pre-emergence, Preemergence, read-out: Plant response rating (scale 0 to 100), Lambsquarters): 98%
pest or weed control at 16 g/ha [2, 12]: 100%
pest or weed control at 31 g/ha [2, 12]: 100%
pest or weed control at 62 g/ha [2, 12]: 100%
pest or weed control at 16 g/ha [3, 13]: 70%
pest or weed control at 31 g/ha [3, 13]: 70%
pest or weed control at 62 g/ha [3, 14]: 80%
pest or weed control at 125 g/ha [3, 14]: 85%
pest or weed control at 125 g/ha ([3]; pre-emergence, Preemergence, read-out: Plant response rating (scale 0 to 100), Morningglory): 100%
pest or weed control at 16 g/ha [3, 15]: 10%
pest or weed control at 31 g/ha [3, 15]: 50%
pest or weed control at 62 g/ha [3, 15]: 100%
pest or weed control at 16 g/ha [4, 16]: 85%
pest or weed control at 31 g/ha [4, 16]: 85%
pest or weed control at 62 g/ha [4, 17]: 98%
pest or weed control at 125 g/ha [4, 17]: 100%
pest or weed control at 125 g/ha ([4]; pre-emergence, Preemergence, read-out: Plant response rating (scale 0 to 100), Pigweed): 100%
pest or weed control at 16 g/ha [4, 18]: 100%
pest or weed control at 31 g/ha [4, 18]: 100%
pest or weed control at 62 g/ha [4, 18]: 100%
pest or weed control at 16 g/ha [5, 19]: 25%
pest or weed control at 31 g/ha [5, 19]: 40%
pest or weed control at 62 g/ha [5, 20]: 65%
pest or weed control at 125 g/ha [5, 20]: 90%
pest or weed control at 125 g/ha ([5]; pre-emergence, Preemergence, read-out: Plant response rating (scale 0 to 100), Ragweed): 95%
pest or weed control at 16 g/ha [5, 21]: 70%
pest or weed control at 31 g/ha [5, 21]: 75%
pest or weed control at 62 g/ha [5, 21]: 90%
pest or weed control at 16 g/ha [6, 22]: 85%
pest or weed control at 31 g/ha [6, 22]: 90%
pest or weed control at 62 g/ha [6, 23]: 98%
pest or weed control at 125 g/ha [6, 23]: 100%
pest or weed control at 125 g/ha ([6]; pre-emergence, Preemergence, read-out: Plant response rating (scale 0 to 100), Waterhemp): 100%
pest or weed control at 16 g/ha [6, 24]: 100%
pest or weed control at 31 g/ha [6, 24]: 100%
pest or weed control at 62 g/ha [6, 24]: 100%
